Laboratory results as given in patent US20240424010A1, “NICOTINAMIDE RIBOSIDE TRIOLEATES CHLORIDE, COMPOSITIONS CONTAINING THIS COMPOUND, AND METHODS OF MAKING AND USING THIS COMPOUND” (SOCIETE DES PRODUITS NESTLE S.A., priority 2021, published 2024).

How the values were obtained:
[1] = Solubility study of NRTBCl in long and medium chain triglycerides and in water at different pH; type: physicochemical
Method: To study the solubility of NRTBCl in long chain triglycerides, we tried to dissolve this compound in olive oil and corn oil. For this purpose, 15 mg of NRTBCl was added to 15 ml of olive oil and vigorously shaked with vortex for 10 minutes at room temperature. […] This procedure was repeated by using corn oil instead of olive oil and the obtained results disclosed that NRTB was insoluble in corn oil. To study the solubility of NRTBCl in medium chain triglycerides, we tried to dissolve this compound in coconut oil. For this purpose, 15 mg of NRTBCl was added to 15 ml of coconut oil and vigorously shaked with vortex for 10 minutes at room temperature. […] To study the solubility of NRTB in water, three aqueous solutions of NRTBCl were prepared with 10000 ppm concentration at pH 5, 7, and 9.

[2] = NRTBCl stability measurement in MQ water at 35° C.; type: physicochemical; details: 6 days, 1000 ppm, preliminary
Method: The stability study of the NRTBCl was performed by dissolving NRTB in MQ water and keeping at 35° C. for 6 days. The concentration of each sample was 1000 ppm. […] The reason for increasing the intensity of the peak at 33 min (flow rate: 0.75 mL/min), is that the byproduct of degradation is nicotinamide (NA), which has the retention time of 33 min (exactly as NRTBCl).

[3] = system: NAD+ level in mammalian cell; details: cited from earlier work
[4] = Stability of NRTOCl and NRCl in DI water at 35° C. for 28 days (released nicotinamide by HPLC); type: physicochemical; details: DI water, 1000 ppm, 28 days
Method: Although NRTOCl is a quaternary ammonium salt, it was not dissolved in water due to the existence of three groups of oleate fatty ester in its structure. Therefore, for the stability study of NRTOCl, this compound was dispersed in DI water using 1% ethanol as a cosolvent. For this purpose, 15 mg of NRTOCl was dissolved in 0.15 ml of ethanol (1%) and then 14.85 ml of DI water was added to the mixture and gently shaken. […] Although the average size of NRTOCl in this sample was 192 nm, the images of TEM disclosed smaller particles with around 50 nm and oval and spherical shapes with aspect ratio close to unity (FIGS. 10A-10C). In the nanoparticles, the NRTOCl structures are stacked on top of each other layer-by-layer. The highly positive charge of NRTO makes the nanoparticles stable in the aqueous phase. After dispersion of NRTOCl in DI water, NRCl was dissolved in DI water, and the stability of these samples were studied at 35° C. for 28 days (FIG. 11). The concentration of each sample was 1000 ppm. As during the hydrolysis reaction of NRTO and NR, both of these compounds released nicotinamide (FIG. 12), and by measuring the released amount of nicotinamide in each sample with HPLC, the remaining amounts of NRTO and NR in each sample were calculated. During this study, any release of NR from NRTO sample was not detected. It signifies that the heavy ester groups in NRTO sample are not hydrolyzed during the time of stability study. Because this study was performed in DI water and the conditions were mild, the NRTO was hydrolyzed from its N-glycoside bond.

[5] = Hydrolysis stability of NRTOCl and NRCl oil-in-water emulsions and NRCl in water at 35° C. for 26 days; type: physicochemical
Method: The emulsion was prepared using 480 mg of oil stock containing 15 wt. % NRTOCl in canola oil and an aqueous phase (14.52 g) of Na-caseinate (2 wt. %), KCl (0.3 wt. %), NaCl (0.1 wt. %), CaCl2 (0.2 wt. %) and NaN3 (0.01 wt. %).
The emulsion was-prepared using 480 mg of oil stock containing 15 wt. % NRTOCl in canola oil and 0.025 g of lecithin. The aqueous phase (14.5 g) contained Na-caseinate (2 wt. %), KC (0.3 wt. %), NaCl (0.1 wt. %), CaCl2 (0.2 wt. %) and NaN3 (0.01 wt. %).
The emulsion was-prepared using 480 mg of oil stock containing 15 wt. % NRTOCl in canola oil and an aqueous phase (14.52 g) of polysorbate 80 (Tween 80) (2 wt. %).
The emulsion was prepared using around 480 mg of canola oil in an aqueous phase (14.52 g) of NRCl (19 mg), Na-caseinate (2 wt. %), KCl (0.3 wt. %), NaCl (0.1 wt. %), CaCl2 (0.2 wt. %) and NaN3 (0.01 wt. %).
After each specific time of stability for NRTOCl and NRCl emulsions, 1.5 mL of each emulsion was centrifuged (14,000 rpm) for 20 minutes at room temperature.
Since NRTOCl is a very hydrophobic compound, to evaluate its stability in oil phase, an emulsion system was used to study the stability of NRTOCl as a function of time. For this purpose, a 15% w/w solution of NRTOCl in canola oil was used for making different emulsions with Na-caseinate, Tween 80 and lecithin as the emulsifiers (2 wt. %) at room temperature.
When Na-caseinate was used as an emulsifier, the aqueous phase must be a solution of NaCl (0.1 wt. %), CaCl2 (0.2 wt. %) and KCl (0.3 wt. %) because caseinate anion with minus charge and NRTO with positive charge immediately aggregated in DI water. The total oil phase in these emulsions were 3.2 wt. %, and the concentration of NRTOCl in total volume of each emulsion (15 mL) was 4.4 mM. In the emulsions that used Na-caseinate as an emulsifier, NaN3 (0.01 wt. %) was added to prevent the growth of bacteria. When the NRTOCl emulsion was made by 2 wt. % Na-caseinate, its average size and zeta potential in this emulsion (Cas emulsion) were 1020 nm and −14.4 mV respectively.
After making NRTOCl emulsions, a NRCl in canola oil-in-water emulsion was attempted as a control experiment using 3.2% canola oil. The aqueous phase was a solution of Na-caseinate (2 wt. %), NaCl (0.1 wt. %), CaCl2 (0.2 wt. %), KCl (0.3 wt. %) and NaN3 (0.01 wt. %). The concentration of NRCl in total volume (15 mL) of this emulsion was 4.4 mM. Moreover, 15 mL of NRCl solution in DI water was prepared with 4.4 mM concentration as the other control experiment. After preparing three NRTOCl emulsions and two control experiment samples, hydrolysis stability of each sample was studied at 35° C. for 26 days (FIG. 14). The rate of degradation was measured by determination of the released nicotinamide from each sample. […]

[6] = Hydrolysis stability of NRTOCl emulsions and NRCl in water at room temperature for 42 days; type: physicochemical; details: room temperature, 42 days
Method: After each specific time of stability for NRTOCl and NRCl emulsions, 1.5 mL of each emulsion was centrifuged (14,000 rpm) for 20 minutes at room temperature. […] However, during this time of stability study, 52.0% NR was intact in water at room temperature. […] During this time, these emulsions were stable without visible phase separation. A little increase in the average size of the NRTO droplets occurred in these emulsions, so that in Cas emulsion, the average size increased from 1020 nm to 1281 nm, and in Cas-Lec emulsion, this parameter increased from 1012 nm to 1106 nm.

[7] = 15 mg in 15 ml, vortex 10 minutes, room temperature

In the case of `CCCC(=O)OC[C@H]1O[C@@H]([n+]2cccc(C(N)=O)c2)[C@H](OC(=O)CCC)[C@@H]1OC(=O)CCC.[Cl-]` [NRTBCl, nicotinamide riboside tributyrates chloride], the “solubility (general statement)” value [1] is reported as “did not demonstrate good solubility”, the “solubility in coconut oil” value [1, 7] is reported as “not dissolved” and the “solubility in corn oil” value [1, 7] is reported as “insoluble”. For the same molecule, the “solubility in olive oil” value [1, 7] was “not dissolved”, the “solubility in water at different pH” value ([1]; 10000 ppm, pH 5, 7, and 9, zeta sizer) was “completely be dissolved” and the “hydrolysis stability in MQ water” value [2] was “easily hydrolyzed”.
In the case of `NC(=O)c1ccc[n+]([C@@H]2O[C@H](CO)[C@@H](O)[C@H]2O)c1.[Cl-]` [NRCl, Nicotinamide riboside chloride, reference compound], the “boost of the level of NAD+ in mammalian cell” value [3] is given as “up to two fold”, the “remaining amount after 28 days” value [4] is given as 0.6% and the “solubility in the oil phase of the emulsion” value [5] is given as “cannot be dissolved”. For the same molecule, the “NR hydrolyzed after 42 days” value [6] was 48% and the “NR intact in water after 42 days” value ([6]; water) was 52.0%.
